Legend:
S. aureus MN8 (pJY202) = assay: Bacterial growth (OD600) in the Agr reporter assay; type: cell-based, Staphylococcus aureus MN8; details: 1X TY media, pH about 6.0, 24 hours
Protocol: (§1) An S. aureus MN8 (pJY202) colony was picked from a TSA plate and grown overnight in TSB media with 5 µg/mL erythromycin with shaking at 37° C. The culture was centrifuged at 3000×g for 5 minutes and the supernatant was removed. The bacteria were washed once with water.
(§2) Individual growth media solutions for the assay were freshly prepared by adding materials to 1X TY media with 5 μg/mL erythromycin and then adjusting the pH of each solution to about pH 6.0 (using 1M NaOH or 1M HCl). All the growth media solutions were sterile filtered when possible using a 0.2 micrometer filter.
An aliquot of each growth media solution (200 microliters) was added to the well of a 96-well black, clear-bottom plate. Samples were prepared in triplicate (n=3). The bacteria samples were resuspended in 5 mL of 1X TY media. A 3 microliter sample of resuspended S. aureus MN8 (pJY202) was added to each well. […] Bacterial growth was measured at 600 nm (OD600) and Agr activity was measured as fluorescent intensity at 485 nm excitation/528 nm emission. Agr activity (relative fluorescence units, RFU) was normalized to bacterial growth (OD600) for each well. The Agr activity was measured at the 24 hour time point.

[1] = test system: accessory gene regulator (agr) system, agr P2-P3 GFP reporter pJY202; assay: Agr Reporter (Staph Aureus) Assay; type: cell-based, Staphylococcus aureus MN8; details: S. aureus MN8 (pJY202), 1X TY media, RFU normalized to OD600, 24 hours, n=3
Protocol: Description: The expression of many virulence factors in Staphylococcus aureus is controlled by the quorum sensing accessory gene regulator (agr) system. The plasmid pJY202 is an agr reporter that contains a fusion of the agr P2-P3 region with a gene coding for GFP.
as §1, §2
An aliquot of each growth media solution (200 microliters) was added to the well of a 96-well black, clear-bottom plate. Samples were prepared in triplicate (n=3). The bacteria samples were resuspended in 5 mL of 1X TY media. […] Bacterial growth was measured at 600 nm (OD600) and Agr activity was measured as fluorescent intensity at 485 nm excitation/528 nm emission. Agr activity (relative fluorescence units, RFU) was normalized to bacterial growth (OD600) for each well. The Agr activity was measured at the 24 hour time point.

O=P([O-])(O)O.[K+] [50 mM KH2PO4, KH2PO4]
Growth OD600 at 24 hours (S. aureus MN8 (pJY202)): 1.02 | Agr Expression at 24 hours [1]: 86 +/− 6
